Experimental findings from patent US20250100997A1, “PYRIDAZINYL AMINO DERIVATIVES AS ALK5 INHIBITORS” (CHIESI FARMACEUTICI S.P.A., priority 2022, published 2025) are described below.

pKi: −log10 of the molar value.

The assay deals with T1, human ALK5 (recombinant TGF β1 N-term GST-tagged, 80-end) (Homo sapiens, UniProt P36897).
T1 construct: human ALK5 (recombinant TGF β1 N-term GST-tagged, 80-end); GST (N); purchased
T1 sequence (P36897 80-503 limits assumed): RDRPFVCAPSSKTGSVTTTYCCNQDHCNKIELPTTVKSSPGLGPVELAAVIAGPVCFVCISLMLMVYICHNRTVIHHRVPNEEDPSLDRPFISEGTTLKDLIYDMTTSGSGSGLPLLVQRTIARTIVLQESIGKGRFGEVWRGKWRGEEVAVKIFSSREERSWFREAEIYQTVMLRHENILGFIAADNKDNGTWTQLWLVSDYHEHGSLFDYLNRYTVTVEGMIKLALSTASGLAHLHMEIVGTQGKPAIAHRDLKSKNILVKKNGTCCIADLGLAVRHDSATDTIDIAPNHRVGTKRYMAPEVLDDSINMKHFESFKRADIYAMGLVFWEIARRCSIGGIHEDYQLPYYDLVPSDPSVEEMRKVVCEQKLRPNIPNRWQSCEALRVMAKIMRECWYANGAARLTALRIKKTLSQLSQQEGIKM
Nature of the assay: ADP-GLO kinase assay, biochemical ALK5 assay. The following applies: pIC50 converted to pKi using the Cheng-Prusoff equation, ATP at Km, or high ATP (30-fold Km) for very potent compounds, 25° C. How it is done:
The enzymatic activity of compounds of the present invention was monitored measuring the formation of ADP using the ADP-GLO Kinases assay. Following the incubation of the purified enzyme, a substrate and ATP, the produced ADP was converted into ATP, which in turn was converted into light by Ultra-Glo Luciferase. The luminescent signal positively correlated with ADP amount and kinase activity. Briefly, the kinase reaction was performed by incubating 2.6 nM of the purified, commercially available human ALK5 (recombinant TGF β1 N-term GST-tagged, 80-end), a final concentration of TGFβ1 peptide 94.5 μM (Promega, T36-58) and ultra-pure ATP (Promega V915B). The ATP concentration was set at the Km value (concentration of substrate which permits the enzyme to achieve half maximal velocity (Vmax)) of ALK5 (0.5 μM). Compound and ALK5 kinase were mixed and incubated for 15 mins. Reactions were initiated by addition of ATP at a final concentration in the assay of […]. After an incubation of 120 min, the reaction was stopped, and ADP production detected with ADP-Glo kit according to manufacturer's indications. To overcome the assay wall limit for very potent compounds the assay protocol was changed by using a high ATP concentration (30-fold Km). Compounds and ALK5 kinase were mixed for 15 min and the reaction initiated by addition of TGFβ1 peptide and ATP at a final concentration in the assay of 15 μM. After an incubation of 60 min, the kinase reaction was stopped, and ADP production detected with ADP-Glo kit according to manufacturer's indications.
All reaction and incubation steps were performed at 25° C. and the assays were performed in 384-well format and validated using a selection of reference compounds tested in 11-point concentration-response curve.
Results were expressed as pIC50 (negative logarithm of IC50) and subsequently converted to pKi (negative logarithm of […]) using the Cheng-Prusoff equation. The higher the value of pKi, the greater the inhibition of ALK5 activity.
For orientation: In ADP-Glo the light output rises with the ADP produced.
As a reminder, the pKi is the negative decadic logarithm of the Ki, by convention in mol/L. With `CN1CCN(CCC(=O)Nc2cc(Nc3cc(-c4cc(Cl)ccc4F)nnc3C3=CCN(C(=O)OC(C)(C)C)CC3)ccn2)CC1` [Example 1, tert-butyl 4-[6-(5-chloro-2-fluorophenyl)-4-({2-[3-(4-methylpiperazin-1-yl)propanamido]pyridin-4-yl}amino)pyridazin-3-yl]-1,2,3,6-tetrahydropyridine-1-carboxylate], the pKi was 8.50 to 9.00.
Then `CN1CCN(CCC(=O)Nc2cc(Nc3cc(-c4cc(Cl)ccc4F)nnc3C3CCN(C(=O)OC(C)(C)C)CC3)ccn2)CC1` [Example 2, tert-butyl 4-[6-(5-chloro-2-fluorophenyl)-4-({2-[3-(4-methylpiperazin-1-yl)propanamido]pyridin-4-yl}amino)pyridazin-3-yl]piperidine-1-carboxylate], with 8.50 to 9.00; and `CN1CCN(CCC(=O)Nc2cc(Nc3cc(-c4cc(Cl)ccc4F)nnc3C3=CCNCC3)ccn2)CC1` [Example 3, N-(4-{[6-(5-chloro-2-fluorophenyl)-3-(1,2,3,6-tetrahydropyridin-4-yl)pyridazin-4-yl]amino}pyridin-2-yl)-3-(4-methylpiperazin-1-yl)propanamide], with 8.50 to 9.00; and `CN1CCN(CCC(=O)Nc2cc(Nc3cc(-c4cc(Cl)ccc4F)nnc3C3CCNCC3)ccn2)CC1` [Example 4, N-(4-{[6-(5-chloro-2-fluorophenyl)-3-(piperidin-4-yl)pyridazin-4-yl]amino}pyridin-2-yl)-3-(4-methylpiperazin-1-yl)propanamide], with 9.10 to 9.90.
Then `COC(=O)N1CC=C(c2nnc(-c3cc(Cl)ccc3F)cc2Nc2ccnc(NC(=O)CCN3CCN(C)CC3)c2)CC1` [Example 5, methyl 4-[6-(5-chloro-2-fluorophenyl)-4-({2-[3-(4-methylpiperazin-1-yl)propanamido]pyridin-4-yl}amino)pyridazin-3-yl]-1,2,3,6-tetrahydropyridine-1-carboxylate], with 8.50 to 9.00; and `CN1CC=C(c2nnc(-c3cc(Cl)ccc3F)cc2Nc2ccnc(NC(=O)CCN3CCN(C)CC3)c2)CC1` [Example 6, N-(4-{[6-(5-chloro-2-fluorophenyl)-3-(1-methyl-1,2,3,6-tetrahydropyridin-4-yl)pyridazin-4-yl]amino}pyridin-2-yl)-3-(4-methylpiperazin-1-yl)propanamide], with 8.50 to 9.00.
In the case of `COC(=O)N1CCC(c2nnc(-c3cc(Cl)ccc3F)cc2Nc2ccnc(NC(=O)CCN3CCN(C)CC3)c2)CC1` [Example 7, methyl 4-[6-(5-chloro-2-fluorophenyl)-4-({2-[3-(4-methylpiperazin-1-yl)propanamido]pyridin-4-yl}amino)pyridazin-3-yl]piperidine-1-carboxylate] it was 9.10 to 9.90.
Take `CN1CCC(c2nnc(-c3cc(Cl)ccc3F)cc2Nc2ccnc(NC(=O)CCN3CCN(C)CC3)c2)CC1` [Example 8, N-(4-{[6-(5-chloro-2-fluorophenyl)-3-(1-methylpiperidin-4-yl)pyridazin-4-yl]amino}pyridin-2-yl)-3-(4-methylpiperazin-1-yl)propanamide]: the pKi is 8.50 to 9.00.
In the case of `CN1CCN(CCC(=O)Nc2cc(Nc3cc(-c4cc(Cl)ccc4F)nnc3C3CN(C(=O)OC(C)(C)C)C3)ccn2)CC1` [Example 9, tert-butyl 3-[6-(5-chloro-2-fluorophenyl)-4-({2-[3-(4-methylpiperazin-1-yl)propanamido]pyridin-4-yl}amino)pyridazin-3-yl]azetidine-1-carboxylate] it was 9.10 to 9.90.
In the case of `CN1CCN(CCC(=O)Nc2cc(Nc3cc(-c4cc(Cl)ccc4F)nnc3C3CNC3)ccn2)CC1` [Example 10, N-(4-{[3-(azetidin-3-yl)-6-(5-chloro-2-fluorophenyl)pyridazin-4-yl]amino}pyridin-2-yl)-3-(4-methylpiperazin-1-yl)propanamide] it was 9.10 to 9.90; in that of `CN1CCN(CCC(=O)Nc2cc(Nc3cc(-c4cc(Cl)ccc4F)nnc3C3=CCCN(C(=O)OC(C)(C)C)C3)ccn2)CC1` [Example 11, tert-butyl 5-[6-(5-chloro-2-fluorophenyl)-4-({2-[3-(4-methylpiperazin-1-yl)propanamido]pyridin-4-yl}amino)pyridazin-3-yl]-1,2,3,6-tetrahydropyridine-1-carboxylate], 9.10 to 9.90.
Then `CN1CCN(CCC(=O)Nc2cc(Nc3cc(-c4cc(Cl)ccc4F)nnc3C3=CCCNC3)ccn2)CC1` [Example 12, N-(4-{[6-(5-chloro-2-fluorophenyl)-3-(1,2,5,6-tetrahydropyridin-3-yl)pyridazin-4-yl]amino}pyridin-2-yl)-3-(4-methylpiperazin-1-yl)propanamide], with 8.50 to 9.00; and `CN1CCN(CCC(=O)Nc2cc(Nc3cc(-c4cc(Cl)ccc4F)nnc3C3=CCCN(C)C3)ccn2)CC1` [Example 13, N-(4-{[6-(5-chloro-2-fluorophenyl)-3-(1-methyl-1,2,5,6-tetrahydropyridin-3-yl)pyridazin-4-yl]amino}pyridin-2-yl)-3-(4-methylpiperazin-1-yl)propanamide], with 8.50 to 9.00; and `CC(=O)N1CCC=C(c2nnc(-c3cc(Cl)ccc3F)cc2Nc2ccnc(NC(=O)CCN3CCN(C)CC3)c2)C1` [Example 14, N-(4-{[3-(1-acetyl-1,2,5,6-tetrahydropyridin-3-yl)-6-(5-chloro-2-fluorophenyl)pyridazin-4-yl]amino}pyridin-2-yl)-3-(4-methylpiperazin-1-yl)propanamide], with 8.50 to 9.00.
In the case of `CN1CCN(CCC(=O)Nc2cc(Nc3cc(-c4cc(Cl)ccc4F)nnc3C3CCN3C(=O)OC(C)(C)C)ccn2)CC1` (stereo not drawn) [Example 15, tert-butyl 2-[6-(5-chloro-2-fluorophenyl)-4-({2-[3-(4-methylpiperazin-1-yl)propanamido]pyridin-4-yl}amino)pyridazin-3-yl]azetidine-1-carboxylate], the pKi is 9.10 to 9.90.
Then `CN1CCN(CCC(=O)Nc2cc(Nc3cc(-c4cc(Cl)ccc4F)nnc3C3CCN3)ccn2)CC1` (stereo not drawn) [Example 16, N-(4-{[3-(azetidin-2-yl)-6-(5-chloro-2-fluorophenyl)pyridazin-4-yl]amino}pyridin-2-yl)-3-(4-methylpiperazin-1-yl)propanamide], with 9.10 to 9.90.
Then `CN1CCN(CCC(=O)Nc2cc(Nc3cc(-c4cc(Cl)ccc4F)nnc3C3CCC(=O)N3C)ccn2)CC1` (stereo not drawn) [Example 17, N-(4-((6-(5-chloro-2-fluorophenyl)-3-(1-methyl-5-oxopyrrolidin-2-yl)pyridazin-4-yl)amino)pyridin-2-yl)-3-(4-methylpiperazin-1-yl)propanamide], with 8.50 to 9.00; and `CN1CCN(CCC(=O)Nc2cc(Nc3cc(-c4cc(Cl)ccc4F)nnc3C3CCO3)ccn2)CC1` (stereo not drawn) [Example 18, N-(4-{[6-(5-chloro-2-fluorophenyl)-3-(oxetan-2-yl)pyridazin-4-yl]amino}pyridin-2-yl)-3-(4-methylpiperazin-1-yl)propanamide], with 9.10 to 9.90.
In the case of `CN1CCN(CCC(=O)Nc2cc(Nc3cc(-c4cc(Cl)ccc4F)nnc3C3CCC(=O)S3)ccn2)CC1` (stereo not drawn) [Example 19, N-(4-((6-(5-chloro-2-fluorophenyl)-3-(5-oxotetrahydrothiophen-2-yl)pyridazin-4-yl)amino)pyridin-2-yl)-3-(4-methylpiperazin-1-yl)propanamide] it was 9.10 to 9.90; in that of `CN1CCN(CCC(=O)Nc2cc(Nc3cc(-c4cc(Cl)ccc4F)nnc3C3COC(C)(C)N3C(=O)OC(C)(C)C)ccn2)CC1` (stereo not drawn) [Example 20, tert-butyl 4-(6-(5-chloro-2-fluorophenyl)-4-((2-(3-(4-methylpiperazin-1-yl)propanamido)pyridin-4-yl)amino)pyridazin-3-yl)-2,2-dimethyloxazolidine-3-carboxylate], 9.10 to 9.90.
On to `CN1CCN(CCC(=O)Nc2cc(Nc3cc(-c4cc(Cl)ccc4F)nnc3C3CCOC3)ccn2)CC1` (stereo not drawn) [Example 21, N-(4-((6-(5-chloro-2-fluorophenyl)-3-(tetrahydrofuran-3-yl)pyridazin-4-yl)amino)pyridin-2-yl)-3-(4-methylpiperazin-1-yl)propanamide], for which the pKi was 9.10 to 9.90.
